Data taken from article PMC10053369, “Recombinant Analogs of Sea Anemone Kunitz-Type Peptides Influence P2X7 Receptor Activity in Neuro-2a Cells” (Marine Drugs, 2023).
Positions of bridges follow the written chain, without caps; N, C: chain ends. No end group written: not given here.

Experiments:
P2X7 in Neuro-2a cells [1] = assay: ATP-induced Ca2+ influx (Fluo-8 AM); assay type: cell-based, mouse; details: for reduction of calcium level: 30 min pre-incubation, 1 mM ATP
Protocol: Neuro-2a neuroblastoma cells (ATCC® CCL-131™) were obtained from American Type Culture Collection (Manassas, VA, USA). The cells were cultivated in DMEM medium (BioloT, St. Petersburg, Russia) supplemented with 10% of fetal bovine serum (BioloT, St. Petersburg, Russia) and 1% penicillin/streptomycin (BioloT, St. Petersburg, Russia) at 37 °C and 5% CO2. Initially, cells were incubated in cultural flasks until sub-confluent (~80%). For testing, Neuro-2a cells were seeded in 96-well plates and experiments were started after 24 h.
Neuro-2a cells were seeded in 96-well plates at a density of 4 × 10^4 cells/well and incubated in DMEM for 24 h at 37 °C, 5% CO2. Then the cells were washed twice with culture medium and loaded with 5 μM Fluo-8 AM (Abcam, Cambridge, UK) dye and 1 μM Pluronic® F-127 (Sigma-Aldrich, St. Louis, MO, USA), and incubated for 40 min at 37 °C in HBSS: 140 mM NaCl, 5 mM KCl, 0.8 mM MgCl2, 2 mM CaCl2, 10 mM glucose, 10 mM HEPES, pH 7.4. Then the cells were washed two times with the same solution but without the fluorescent dye and treated with the studied peptides for 30 min at RT in the dark. In some experiments Ca^2+-free medium was used: 140 mM NaCl, 5 mM KCl, 0.8 mM MgCl2, 10 mM glucose, 10 mM HEPES, 5 mM EGTA, pH 7.4. ATP (1 mM final concentration) was added using a microinjector (20 μL/well) 10 s later the baseline recording and the readings were taken up to 50 s in 1 s intervals. The standard P2X7 inhibitor, A438079 (Sigma-Aldrich, St. Louis, MO, USA), was used as inhibitory control. Ionomycin (Sigma-Aldrich, St. Louis, MO, USA) and BHQ were used to generate a generic calcium signal in cells. 2,5,-di(t-butyl) hydroquinone (BHQ) was synthesized and kindly provided by Dr. Polonik S.N. (PIBOC FEBRAS). Fluo-8 was excited at 485 nm, and the emission at 520 nm was measured with a PHERAstar®FS plate reader (BMG LABTECH, Ortenberg, Germany). The data were processed by MARS Data Analysis v. 3.01R2 (BMG Labtech, Ortenberg, Germany). Mean values and standard error of peak height calcium were calculated.
All data were obtained in three independent replicates and calculated values were expressed as mean ± standard error of the mean (SEM). The Student’s t-test was performed using SigmaPlot 14.0 (Systat Software Inc., San Jose, CA, USA) to determine statistical significance.

P2X7 in Neuro-2a cells [2] = assay: P2X7 immunofluorescence / expression (confocal microscopy); assay type: cell-based, mouse; details: 10 μM peptide, 24 h
Protocol: Neuro-2a cells on coverslips were washed once with PBS, fixed with cold 100% methanol for 5 min in an ice bath, and then washed (3 × 5 min) with PBS. For P2X7 receptor immunocytochemistry, cells were blocked with 10% bovine serum in PBS containing 0.1% Triton X-100 (1 h) and incubated with specific to P2X7 primary antibodies (1:1000; orb35965 Biorbyt Ltd., Cambridge, UK) overnight at 4 °C. Cells were washed with PBS (3 × 10 min) and incubated with Alexa Fluor 594-conjugated goat anti-rabbit secondary antibodies (1:200, Abcam plc, Cambridge, UK) for 2 h at room temperature. Cells were washed in PBS (3 × 10 min) before mounting. In control experiments, the primary antibody was omitted, and immunostaining was never observed. Neuro-2a cell fluorescence was studied using an LSM 710 META confocal laser scanning microscope (Carl Zeiss, Göttingen, Germany) equipped with an Ar laser with an effective power of 30 mW. The obtained images were analyzed using the ZEN 2.3 (blue edition) software (Carl Zeiss, Göttingen, Germany).

[3] = test system: Kv1.1, Kv1.2, Kv1.3 and Kv1.6 isoforms as well as insect Shaker IR; details: range over channels and both peptides, ref [16],[25]; cited from earlier work
Text: The studied peptides are analogs of sea anemone Kunitz-type peptides and attract our attention due to their wide spectrum of biological activity and ability to interact with important molecular targets.

RGICSEPKVVGPCKAGLRRFYYDSETGECKPFIYGGCKGNKNNFETLHACRGICRA (disulfide 4-54, 13-37, 29-50 (inferred)) [HCRG1]
reduction of calcium level (P2X7 in Neuro-2a cells [1]; 0.1 μM peptide, mean ± SE, n = 3): 57.5 ± 11.6%
reduction of calcium level (P2X7 in Neuro-2a cells [1]; 0.1–10 μM peptide): significantly reduced the calcium level
effect on Ca2+ influx (summary in discussion) (P2X7 in Neuro-2a cells [1]; short-term effect): a significant effect on Ca^2+ influx into cells
amount of P2X7 in Neuro-2a cells (P2X7 in Neuro-2a cells [2]): significantly reduced the amount of P2X7 in Neuro-2a cells
decrease in P2X7 fluorescence (P2X7 in Neuro-2a cells [2]; mean ± SE, n = 3, p < 0.05): 24.1 ± 3.2%
IC50 [3]: 12 to 400 nM
